pEC50: −log10 of the molar value.
Assays:
[1] = test system: human S1P1 receptor; test: Determination of S1P1 receptor activation (intracellular calcium release, FLIPR, CHO cells); type: cell-based; conditions: compound at 10 μM; in percent of activation by 100 nM S1P
Description: Determination of S1P1 Receptor Activation
The activation of the S1P1 receptor by the chemical compounds described in the present invention disclosure was determined via the S1P1 receptor-mediated release of intracellular calcium.
The CHO (chinese hamster ovarian) cells used here was stably overexpressed with the human S1P1 receptor (Flp-In System, Invitrogen). In order to amplify the signal transduction of the receptor in the direction of a cellular calcium response, a receptor modified at the C terminus was used, which contained the sequence of a modified G protein (Gαi4qi4) (WO 02/04665). The changes in intracellular calcium were determined by means of the calcium-sensitive fluorescent dye Fluo-4 (Invitrogen) in an appropriate plate reader (FLIPR, […]).
To prepare the measurement, the cells were sown in 96-well plates (Becton Dickinson, Biocoat cellware, poly-D-lysine coated, #354640) with 40 000 cells per cavity between 18 and 24 hours before the calcium measurement. For the intervening period, the cells were cultivated in an incubator under 95% air humidity with 5% CO2 gas in a medium based on F-12 Glutamax (Gibco #31765), which was additionally supplemented with 1% (vol/vol) penicillin/streptomycin (PAN, #P06-07100), 10% (vol/vol) fetal calf serum (Hyclone charcoal/dextran treated FBS #SH30068) and Hygromycin B (final concentration 300 mg/l; Invitrogen, #10687-010).
For calcium measurement, the cells were laden beforehand with the acetoxymethyl ester derivative of the Fluo-4 dye (Fluo-4 AM, Invitrogen, #F14202) for 60 min. During the loading, which took place in the incubator under the conditions specified above, the cells were incubated with an HBSS buffer (Hanks' Balanced Salt Solution; Invitrogen #14065049) which had been supplemented with Fluo-4 AM (acetoxymethyl ester of Fluo-4; 2 μM; all figures are based on final concentrations), Pluronic® F-127 (0.05% vol/vol; Invitrogen, #P-3000 MP), HEPES (20 mM; Gibco #15630), probenecid (2.5 mM; Sigma #P-8761) and bovine serum albumin (0.05%; Sigma #A-6003). This buffer was finally adjusted to a pH of 7.5 with sodium hydroxide.
During the loading with Fluo-4, the acetoxymethyl ester is cleaved by intracellular esterases, and so there is intracellular accumulation of the dye. The loading of the cells was ended by washing three times (Tecan, Power Washer) with a wash buffer.
The wash buffer was also used for the later fluorescence-based calcium measurement. In this case, the laden and washed cells were stimulated with the compounds described (dissolved in DMSO; maximum final DMSO concentration 0.3%) in different concentrations. […]
All measurements were conducted as triplicates, and the individual values thereof were averaged for further calculation. The percentage activation of the S1P1 receptor, which was caused in some cases by the compounds described, was calculated using the S1P-related calcium response (positive control). Before this calculation, a background correction took place, by subtracting the value of the base control (DMSO control) from all other fluorescence values detected.
Using the specific cellular fluorescence response at different concentrations of the compounds used, concentrations were calculated at which the cell response was at half maximum (EC50 value). […] Here too, the percentage activation of the receptor was calculated using the positive control (S1P, 100 nM) and base control (DMSO control).

[2] = molecular target: T1, GPCR GPR40 (human) (Homo sapiens, UniProt O14842); test: In vitro FLIPR assay with recombinant HEK293 cells which express the GPCR GPR40 (intracellular Ca2+); type: cell-based; conditions: recombinant HEK293 cells expressing human GPR40; 100% = 10 μM linoleic acid reference agonist; read-out: hGPR40 EC50
T1 construct: expressed in transfected cells; host or cells: HEK293
Description: In Vitro FLIPR Assay with Recombinant Cells which Express the GPCR GPR40
Function-testing assays were performed by means of the FLIPR technique (“Fluorescence Imaging Plate Reader”, Molecular Devices Corp.). For this purpose, agonist-induced changes were determined in the intracellular concentration of Ca^2+ in recombinant HEK293 cells which expressed the GPCR GPR40 (human).
For the studies, cells were sown into 96-well microtiter plates (60 000 cells/well) and left to grow overnight. The medium was removed and the cells were incubated in buffer which contained the fluorescent dye Fluo-4. After this loading with dye, the cells were washed, test substance was added and changes were measured in the intracellular Ca^2+ concentration in the FLIPR instrument. Results were presented as the percentage change relative to the control (0%: no test substance added; 100%: 10 μM linoleic acid reference agonist added) and used for calculation of dose/efficacy curves, and the EC50 values were thus determined. The mean effective concentration (EC50) is the dose at which a half-maximum effect is observed.

T1 sequence (O14842 whole entry): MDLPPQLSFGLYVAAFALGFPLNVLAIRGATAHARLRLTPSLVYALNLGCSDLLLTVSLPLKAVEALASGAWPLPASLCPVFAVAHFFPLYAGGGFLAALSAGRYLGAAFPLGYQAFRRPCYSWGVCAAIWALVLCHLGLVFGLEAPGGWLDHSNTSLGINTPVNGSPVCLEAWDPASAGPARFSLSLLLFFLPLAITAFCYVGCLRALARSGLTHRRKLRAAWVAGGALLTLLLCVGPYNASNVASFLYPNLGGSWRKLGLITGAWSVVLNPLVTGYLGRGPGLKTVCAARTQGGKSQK

pEC50 [2]	Compound	S1P1 receptor activation, % activation [1] [%]
6.13	CC#C[C@H](CC(=O)O)c1ccc(NC(=O)C(=O)Nc2cc(C(F)(F)F)ccc2C(F)(F)F)cc1 [compound 6, (R)-3-{4-[(2,5-bis(trifluoromethyl)phenylaminooxalyl)amino]phenyl}hex-4-ynoic acid, reference compound]	–
9.40	CC#C[C@@H](CC(=O)O)c1ccc(NC(=O)C(=O)Nc2cc(C(F)(F)F)ccc2C(F)(F)F)cc1 [Example 1, (S)-3-{4-[(2,5-bis(trifluoromethyl)phenylaminooxalyl)amino]phenyl}hex-4-ynoic acid]	0
8.40	CC#C[C@@H](CC(=O)O)c1ccc(NC(=O)C(=O)Nc2cc(C(F)(F)F)ccc2C)cc1 [Example 3, (S)-3-{4-[(2-methyl-5-trifluoromethylphenylaminooxalyl)amino]phenyl}hex-4-ynoic acid]	1

The remaining lines, values behind:

Compound	pEC50 [2]	S1P1 receptor activation, % activation [1] [%]
CC#C[C@@H](CC(=O)O)c1ccc(NC(=O)C(=O)Nc2cccc(C(C)C)c2)cc1 [Example 4, (S)-3-{4-[(3-isopropylphenylaminooxalyl)amino]phenyl}hex-4-ynoic acid]	8.15	0
CC#C[C@H](CC(=O)O)c1ccc(NC(=O)C(=O)Nc2cccc(C(C)(C)C)c2)cc1 [compound 7, (R)-3-{4-[(3-tert-butylphenylaminooxalyl)amino]phenyl}hex-4-ynoic acid, reference compound]	5.81	–
CC#C[C@H](CC(=O)O)c1ccc(NC(=O)C(=O)Nc2cc(C(F)(F)F)ccc2C)cc1 [compound 8, (R)-3-{4-[(2-methyl-5-trifluoromethylphenylaminooxalyl)amino]phenyl}hex-4-ynoic acid, reference compound]	5.75	–
CC#C[C@H](CC(=O)O)c1ccc(NC(=O)C(=O)Nc2cc(C(F)(F)F)ccc2Cl)cc1 [compound 10, (R)-3-{4-[(2-chloro-5-trifluoromethylphenylaminooxalyl)amino]phenyl}hex-4-ynoic acid, reference compound]	5.64	–
CC#C[C@H](CC(=O)O)c1ccc(NC(=O)C(=O)Nc2cccc(C(C)C)c2)cc1 [compound 9, (R)-3-{4-[(3-isopropylphenylaminooxalyl)amino]phenyl}hex-4-ynoic acid, reference compound]	5.68	–
CC#C[C@@H](CC(=O)O)c1ccc(NC(=O)C(=O)Nc2cccc(C(C)(C)C)c2)cc1 [Example 2, (S)-3-{4-[(3-tert-butylphenylaminooxalyl)amino]phenyl}hex-4-ynoic acid]	8.70	1
CC#C[C@@H](CC(=O)O)c1ccc(NC(=O)C(=O)Nc2cc(C(F)(F)F)ccc2Cl)cc1 [Example 5, (S)-3-{4-[(2-chloro-5-trifluoromethylphenylaminooxalyl)amino]phenyl}hex-4-ynoic acid]	8.70	0
